Our source for the melting point values is a melting point compilation (Tetko et al.).

By melting point is commonly meant the temperature of the solid-liquid transition. In turn, `Cc1cc(C(=O)Cl)ccc1Br` gave a melting point of 26 °C. `CCCCCCCC(=O)OC(=O)CCCCCCC` returned a melting point of -1 °C. To `CCCCCOC(=O)Nc1nc(=O)n(C2OC(C)C(O)C2O)cc1F` (stereo not given) belongs 116 °C; to `O=C(O)C1=Cc2cc(Cl)ccc2OC1`, 245 °C; to `CCOC(=O)C(CCC#N)(CCC#N)C(=O)OCC`, 62 °C. In turn, `CC(C)NC(=O)C(Br)C(C)(C)C` (stereo not given) showed a melting point of 128 to 130 °C. On to `C=C1CC2C3CCC4=CC(=O)C=CC4(C)C3C(O)CC2(C)C1(O)C(=O)CO` (stereo not given), for which the melting point came to 234 °C.

`CC(=O)c1ccc(O)c(C(N)=O)c1` displayed a melting point of 221 to 226 °C. As for `O[C@@H]1C#CCCCCC#C[C@@H](O)CC1`, the figure is 154 °C; as for `COC(=O)CCc1c([N+](=O)[O-])cc2c(c1[N+](=O)[O-])NC(=O)CC2`, 166 °C.

`O=C(c1ccc2c(c1O)CC=CC2)c1cccc2ccccc12` had a melting point of 132 °C. In the case of `CC(C)NNC(=O)c1ccncc1`, the melting point was 150 °C. `O=Cc1cc(I)ccc1F` had a melting point of 44 °C. To `O=C(O)Cc1cccc(Oc2ccccc2)c1` belongs 89 °C; to `Cc1ccc(C(c2ccc(C)cc2)(C(F)(F)F)C(F)(F)F)cc1`, 82 to 83 °C. In turn, `CCNc1cc2oc(=O)cc(C(F)(F)F)c2cc1C` yielded a melting point of 184 °C. Compound `CC(=O)OCC(OC(C)=O)C(OC(C)=O)C(OC(C)=O)C(OC(C)=O)C(N)=O` (stereo not given) had a melting point of 187 to 188 °C. To `Nc1cccc(S(N)(=O)=O)c1` belongs 141 °C. As for `FC(F)OC(F)F`, the figure is -123 °C; as for `COC(=O)CC(=O)c1ccc(C(=O)OC)cc1`, 81 to 86 °C; as for `CC12CC3CC(C)(C1)CC(C(=O)O)(C3)C2`, 101 °C.

`Brc1ccc2c(c1)OCCOCCOCCOCCO2` yielded a melting point of 66 to 71 °C. Compound `Cc1cccc2c1[nH]c(=O)c1cc(NC(=O)c3ccccc3)c(=O)oc12` registered a melting point of over 300 °C. To `C1=C\c2ccc(cc2)-c2ccccc2-c2ccc/1cc2` belongs 230 °C; to `COc1cc(N)ccc1[N+](=O)[O-]`, 127 °C. `C=C(C)C1CCC(C)=CC1c1c(O)cc(CCCCC)cc1O` (stereo not given) yielded a melting point of 67 °C. To `COC(=O)c1c(N)sc2c1CCCC2` belongs 128 °C.

For the compound `COc1cc(C=Cc2cc(/C=C/c3ccc(O)c(OC)c3)c([N+](=O)[O-])cc2[N+](=O)[O-])ccc1O`, the melting point came to 251 °C. On to `CCOC(=O)C=Cc1ccc([N+](=O)[O-])cc1`, for which the melting point was 139 °C. As for `O=C(O)c1ccc2[nH]ccc2c1`, the figure is 210 °C; as for `O=C(O)c1coc2ccccc2c1=O`, 201 °C; as for `NC(Cc1cc(I)c(Oc2ccc(O)c(I)c2)c(I)c1)C(=O)O` (stereo not given), 236 °C. To `N#C/C(=N\Nc1ccc2ccccc2c1)c1nc(-c2ccc(Cl)cc2)cs1` belongs 218 °C; to `CCn1cc(C(=O)O)c(=O)c2cc(F)c(N3CCNCC3)cc21`, 228 °C. To `OCCc1cccc2ccccc12` belongs 62 °C; to `CCOC(=O)c1cc(C(=O)CBr)on1`, 71 to 73 °C; to `CCc1ccc(C(c2ccc(CC)cc2)C(Cl)Cl)cc1`, 56 °C. In turn, `C=CC(Cl)(Cl)Cl` yielded a melting point of -30 °C.

The compound `CCCCN(C(C)=O)c1ccccc1` showed a melting point of 24.5 °C. The compound `CC(C)(C)CC(=O)OCC(=O)C1(O)CCC2C3CCC4=CC(=O)CCC4(C)C3C(O)CC21C` (stereo not given) displayed a melting point of 168 °C. `COc1ccc(C=CC(=O)c2ccc(O)cc2)cc1` registered a melting point of 188 °C. To `Oc1ccc(C=Nc2ccccc2N=Cc2ccc(O)cc2O)c(O)c1` belongs 163 to 165 °C; to `CCCCc1c(C)nc(NC(=O)NS(=O)(=O)c2cccs2)nc1Cl`, 188 to 189 °C. In turn, `Brc1cccc(N2CCCC2)n1` gave a melting point of 86 to 88 °C. To `Cc1csc(C(=O)O)c1` belongs 124 to 125 °C; to `OCc1ccc(Cn2cncn2)cc1`, 68 to 70 °C; to `Nc1ncnc2c1ncn2C1OC(CO)C(OP(=O)(O)O)C1O` (stereo not given), 197 °C. To `CCCCCOc1ccc(C(=O)O)cc1` belongs 123 to 127 °C; to `O=Cc1nc2ccccc2c2ncccc12`, 144 to 145 °C; to `O=[N+]([O-])c1ccc2c(c1)oc1ccccc12`, 182 °C.

As for `CC(=O)OC1(C(C)=O)CCC2C3C=C(C)C4=CC(=O)CCC4(C)C3CCC21C` (stereo not given), the melting point was found to be 214 °C. `NC(=O)OCC(O)c1ccccc1` (stereo not given) registered a melting point of 112 °C. `O=C1c2ccccc2C(=O)C1(O)O` showed a melting point of 250 °C. For the compound `Cc1cc(C(C)(C)C)cc(C)c1O`, the melting point is 82.4 °C.

As to `CC(=O)n1c(C)cc2cc3cc(C)[nH]c3cc21`, the melting point was 279 °C. As for `CC(=O)Oc1ccc(C#N)cc1`, the figure is 57 °C; as for `COc1nc(NC(C)C)nc(NC(C)C)n1`, 91.5 °C; as for `CCOP(=S)(OCC)Oc1cnc2ccccc2n1`, 31.5 °C. To `C=C(F)C(=O)O` belongs 51.5 to 52 °C; to `O=C1NCCO1`, 87 °C; to `O=C(O)c1cncc(-c2ccco2)c1`, 261 to 263 °C. As for `FC(F)(F)C(F)(F)C(Cl)Cl`, the figure is -94 °C; as for `C/C=C(C)/C=C/C=C(C)C`, -35.4 °C. In turn, `O=Nc1c(Cl)cccc1Cl` showed a melting point of 172 °C. `CCCC(O)C(O)(CC)C1CCCCC1` (stereo not given) showed a melting point of 78 °C. To `Sc1nc2cc(Cl)ccc2[nH]1` belongs 300 °C; to `CC(Cc1ccc(O)c(O)c1)C(C)Cc1ccc(O)c(O)c1` (stereo not given), 186 °C; to `CN(C)c1ccc(C2Nn3c(COc4ccccc4)nnc3S2)cc1` (stereo not given), 143 to 144 °C. For `O=[N+]([O-])c1cccnc1Sc1ccc(Cl)cc1`, the melting point lay within 127 to 129 °C. For the compound `CN(C)c1ccc(/C=C(\C(N)=O)c2nc3ccccc3s2)cc1`, the melting point was determined as 210 °C. To `COc1cccc(C#N)c1` belongs 23 °C.

As for `c1ccc(C2c3ccccc3-c3ccccc32)cc1`, the melting point was determined as 147 °C. As for `COc1cc(CC(=O)O)cc(Br)c1O`, the figure is 183 to 185 °C; as for `COc1ccc2c(=O)c(=O)c2c1`, 102 °C; as for `O=C(O)C1CC2CCC1C2` (stereo not given), 40 °C. To `Cc1cc(Cl)ccc1C(=O)O` belongs 172 to 173 °C.

Take `CCCOc1ccc2c(c1)C(c1ccc(OC)cc1OCC(=O)O)C(C(=O)O)C2c1ccc2c(c1)OCO2` (stereo not given): the melting point turned out to be 254 °C. `O=[N+]([O-])c1cccc(F)c1` gave a melting point of 41 °C. Compound `CC(=O)OC(OC(C)=O)c1ccc2c(c1[N+](=O)[O-])C(=O)c1c(Cl)c(Cl)c(Cl)c(Cl)c1C2=O` gave a melting point of 250 °C. On to `CC(C)SC1OC(CO)C(O)C(O)C1O` (stereo not given), for which the melting point turned out to be 121 °C.

Consider `Cc1cc2ccccc2n1C`, for which the melting point came to 56.5 °C. Compound `Nc1ccc2c(c1)OCO2` showed a melting point of 38 to 43 °C.

Turning to `O=C1C(=Cc2ccco2)SC(=S)N1CN1CCCCC1`, the melting point was in the range of 120 to 121 °C. As for `Clc1ccc(I)cc1Cl`, the figure is 30 °C. To `Cc1c(C)c(C)c(CO)c(C)c1C` belongs 159 to 163 °C; to `NCCCC(O)(P(=O)(O)O)P(=O)(O)O`, 234 °C. To `CC(C)(C)CC(C)(C)c1ccc(O)c(Cc2ccc(Cl)cc2Cl)c1` belongs 78 °C; to `O=C(O)C(F)C(F)(F)F` (stereo not given), 28.2 to 29.2 °C; to `O=C(OCC1OC(O)(COC(=O)c2cccnc2)C(OC(=O)c2cccnc2)C1OC(=O)c1cccnc1)c1cccnc1` (stereo not given), 141 °C.

In turn, `CCOC(=O)c1cnc(NCc2ccccc2)s1` showed a melting point of 136 to 143 °C. To `CC(C)(C)OC(=O)Nc1ccccn1` belongs 93 °C. `CCCCNCC(=O)Nc1c(C)cccc1Cl`: the melting point stood at 45.5 °C. To `CC(=O)C(=NNc1ccc(Br)cc1)C(C)=O` belongs 132 °C; to `Nc1nnc(Br)s1`, 168 to 169 °C; to `CC(C)(N)C(=O)O`, 335 °C. As for `CC(C)=CC1C(C(=O)OCc2coc(Cc3ccccc3)c2)C1(C)C` (stereo not given), the figure is 56.5 °C; as for `NNC(=O)c1ccc([N+](=O)[O-])cc1`, 210 to 214 °C; as for `COC(=O)c1nc(Cl)c(Cl)nc1N`, 232 °C. As for `COc1ccc(C=CC(=O)Nc2ccccc2C(=O)O)cc1OC`, the figure is 212 °C; as for `CCCNc1cc(=O)oc2ccccc12`, 111 °C.

For the compound `Cn1c(S)nnc1-c1ccc(Cl)cc1Cl`, the melting point fell in the range of 175 to 177 °C. To `Cc1ccc(-c2ccc(C)c(C)c2)cc1C` belongs 76 °C. As for `CC(C)(C=O)C(c1ccccc1)C(C(=O)O)C(=O)O` (stereo not given), the figure is 153 °C. `Nc1ccc(O)c(C(=O)O)c1` had a melting point of 284 °C.

In the case of `CN(CCCC(=O)c1cccnc1)N=O`, the melting point was 67.5 °C. Regarding `O=Cc1ccc(Br)cc1`, the melting point stood at 67 °C.

Take `CCOC(=O)Cc1ccc(Br)cc1`: the melting point stood at 30 °C.

Regarding `OCC(F)(F)C(F)(F)C(F)(F)C(F)(F)C(F)(F)C(F)(F)C(F)(F)C(F)(F)C(F)(F)C(F)F`, the melting point lay within 95 to 97 °C. To `Brc1cccc2c1Oc1cccc(Br)c1O2` belongs 207 °C; to `Cc1nc(NS(=O)(=O)c2ccc(N)cc2)oc1C`, 193 °C.
